The text below walks through data of US20240279221A1, “HETEROCYCLIC COMPOUNDS AND METHODS OF USE” (Schrödinger, Inc., priority 2021, published 2024).

For test [1], the target named is SOS1:KRAS (G12C) interaction (Homo sapiens (Human), UniProt Q07889). Briefly: SOS1-KRas(G12C) FRET Assay. Type of test: binding. The settings on record: 0.5 nM His10-SOS1 (res. 564-1049), 2.5 nM GST-KRAS (res. 1-169, G12C); read-out: SOS-KRas(G12C) FRET IC50. The method, boiled down: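 Compounds were pre-incubated 15 min at 25° C with SOS1 (His10, res. 564-1049; 0.5 nM final) and anti-6His-XL665, then GST-KRAS G12C (res. 1-169; 2.5 nM final) with anti-GST-Eu(K) was added for 2 h at RT. The buffer was PBS, 0.1% BSA, 5 mM MgCl2, 100 mM KF, 5 mM DTT with 0.5% DMSO. The 665/615 nm signal was normalised to DMSO and no-SOS1 controls, and IC50 and Hill coefficient were fitted by non-linear regression.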
SOS1:KRAS (G12C) interaction, sequence (Q07889 564-1049, stated change not applied): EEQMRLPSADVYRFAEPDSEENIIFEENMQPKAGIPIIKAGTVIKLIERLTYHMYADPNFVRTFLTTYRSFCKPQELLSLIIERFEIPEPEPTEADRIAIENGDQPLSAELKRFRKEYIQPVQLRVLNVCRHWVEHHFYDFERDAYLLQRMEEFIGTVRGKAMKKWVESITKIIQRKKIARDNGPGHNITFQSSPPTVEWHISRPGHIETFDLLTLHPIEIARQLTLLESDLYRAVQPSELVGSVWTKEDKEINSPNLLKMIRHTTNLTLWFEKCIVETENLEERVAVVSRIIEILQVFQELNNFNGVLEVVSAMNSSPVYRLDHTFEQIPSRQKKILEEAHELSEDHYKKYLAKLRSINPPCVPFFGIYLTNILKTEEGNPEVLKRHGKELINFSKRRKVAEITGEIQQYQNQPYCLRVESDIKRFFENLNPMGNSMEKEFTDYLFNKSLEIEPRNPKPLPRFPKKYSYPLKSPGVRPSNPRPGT

For the next test, the target named is human SOS1 (Homo sapiens (Human), UniProt Q07889). Briefly: Surface Plasmon Resonance (SPR) SOS1 Binding Assay. The settings on record: biotinylated SOS1 (res. 564-1049), 25° C., kinetic or steady state fit, read-out: KD for hSOS1. The method, boiled down:
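Biotinylated human SOS1 (res. 564-1049, N-terminal Avi tag) captured on streptavidin chip to ~3,000 RU; 25° C., Tris buffer pH 8.0 with 1 mM MgCl2, 5% DMSO running buffer. Compound series (top 100, 50 or 0.5 μM) injected 60 s, dissociation 600 s; double-referenced KD from 1:1 kinetic or steady-state fit.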

pIC50, pKd: −log10 of the molar value.

human SOS1, sequence (Q07889 564-1049): as the sequence (Q07889 564-1049, stated change not applied) above

Consider `Cc1c([C@@H](C)Nc2nn(C)c(=O)c3c(OCC4CC4)c(=O)n(C4CC4)cc23)cccc1C(F)(F)F` [Example 82, (R)-6-cyclopropyl-8-(cyclopropylmethoxy)-2-methyl-4-((1-(2-methyl-3-(trifluoromethyl)phenyl)ethyl)amino)-2,6-dihydropyrido[3,4-d]pyridazine-1,7-dione], for which the pIC50 (commonly the negative decadic logarithm of the IC50, by convention in mol/L) in test [1] was 6.32. Further, at human SOS1, the pKd (as a rule, the Kd on a negative log10 scale, so that one unit is a factor of ten) is 7.29.
